Consider three compounds from US6977254B2, “Hydroxy cyclohexenyl phenyl carboxamides tocolytic oxytocin receptor antagonists” (Wyeth, priority 2001, dated 2005).

For this test, the target named is T1, human V2 vasopressin receptor subtype (Homo sapiens, UniProt P30518).
T1 construct: host or cells: CHO cells, stably transfected (pZeoSV vector); membranes
The experiment in a line: Vasopressin binding in CHO cell membranes expressing human vasopressin V2 subtype receptors ([3H]arginine vasopressin). The settings on record: for pIC50: value in parentheses. From the text: Vasopressin Binding in Chinese Hamster Ovary Cell Membranes Expressing Human Vasopressin V2 Subtype Receptors
Chinese Hamster Ovary (CHO) cells stably transfected with the human V2 subtype receptors were obtained from M. Thibonnier, Case Western Reserve University School of Medicine, Cleveland, Ohio.
A. Passaging and Amplification of Cells:
CHO cells transfected with the human vasopressin V2 subtype receptors obtained from M. Thibonnier (pZeoSV vector) are allowed to grow to confluency (approx. >90%) in T-150 flasks under sterile conditions, in a cell culture medium of F-12 Nutrient Mixture (HAM) with L-glutamine (Gibco Cat. #11765-054) containing 15 mM HEPES (Gibco Cat. #15630-080), 1% antibiotic/antimycotic (add 5 mL 100×, Gibco Cat. #15240-062 per 500 mL F-12), 250 μg/mL Zeocin (add 1.25 mL of 100 mg/mL Invitrogen R-250-01 per 500 mL F-12) and 10% Fetal Bovine Serum (Qualified, heat inactivated, Gibco Cat. #16140-063). The medium is removed by aspiration and the cells washed with 10 mL of Hank's Balanced Salt solution (Gibco Cat. #14175-095). The salt solution is removed by aspiration and the cells trypsinized with 5 mL of trypsin-EDTA (0.05% trypsin, 0.53 mM EDTA-4Na, Gibco Cat. #25300-070) for 1 min. The trypsin is removed by aspiration and the cells dislodged by tapping. Cell Culture medium (e.g. 30 mL for 1:30 split) is immediately added and mixed well to inactivate trypsin. 1 mL of detached cells is added to new culture flasks containing fresh Cell Culture medium (e.g. into 25 mL per T-150 flask), and mixed gently. The cells are incubated at 37° C. in 5% CO2. The medium is changed at 3 to 4 day interval (or as appropriate). The cells grow to confluency (approx. >75%-95%) within 7-8 days. All steps are done under sterile conditions.
The cells are washed twice gently with Hank's Balanced Salt solution (e.g. use 10 mL per T-150 flask). The excess solution is removed and the cells bathed for 15-30 min. in an enzyme-free Cell Dissociation Buffer (e.g. use 8 mL Hank's Based, Gibco Cat. #13150-016 per T-150 flask) until cells are loosened. The contents are transferred to centrifuge tubes (50 mL size) kept in ice bath. All subsequent steps are done at 4° C. The tubes are centrifuged at 300×g for 15 min (1380 rpm on SORVAL, Model RT6000D, using rotor for 50 mL tubes). The supernatant is discarded and the cells suspended in homogeneizing buffer(10 mM Tris-HCl containing 0.25 M sucrose and 1 mM EDTA, pH 7.4) ensuring that the volume of the buffer is about ten times the volume of the cell pellet. The cells are pooled into a centrifuge tube (50 mL) and homogenized with Polytron at setting 6 for 10 sec. The homogenate is transferred into a Potter-Elvjehm homogeneizer and homogenized with 3 strokes. The homogenate is centrifuged at 1500×g for 60 min at 4° C. (3100 rpm using SORVAL, model RT6000D, using rotor for 50 mL tubes). The pellet is discarded. The supernatant is centrifuged at 100,000×g for 60 min. at 4° C. (Beckman L8-80M ultracentrifuge; spin at 37,500 rpm with rotor type 70 Ti for 50 mL tubes; 38,000 rpm with type 80Ti for 15 mL tubes; or 35,800 rpm with rotor type 45Ti). The supernantant is discarded and the pellet suspended in 3 to 4 mL of Tris buffer (50 mM TRIS-HCl, pH 7.4). The protein content is estimated by the Bradford or Lowry method. The volume of the membrane suspension is adjusted with the membrane buffer (50 mM Tris-HCl containing 0.1% BSA and 0.1 mM PMSF) to give 3.0 mg/mL (or as appropriate) of protein. The membranes are aliquoted and stored at −70° C.
C. Radioligand Binding Assay:
In wells of a 96-well format microtiter plate, is added 90, 110 or 130 μL (to make up a final volume of 200 μL) of assay buffer containing 50 mM of Tris-HCl (pH 7.4), […], 1 mg % aprotinin, 1 mg % leupeptin, 2 mg % 1,10-phenanthroline, 10 mg % trypsin inhibitor, and 0.1 mM PMSF. The inhibitors are added on the day of the experiment. […]

Each structure is given as a SMILES string. pIC50: −log10 of the molar value.

T1 sequence (P30518 whole entry): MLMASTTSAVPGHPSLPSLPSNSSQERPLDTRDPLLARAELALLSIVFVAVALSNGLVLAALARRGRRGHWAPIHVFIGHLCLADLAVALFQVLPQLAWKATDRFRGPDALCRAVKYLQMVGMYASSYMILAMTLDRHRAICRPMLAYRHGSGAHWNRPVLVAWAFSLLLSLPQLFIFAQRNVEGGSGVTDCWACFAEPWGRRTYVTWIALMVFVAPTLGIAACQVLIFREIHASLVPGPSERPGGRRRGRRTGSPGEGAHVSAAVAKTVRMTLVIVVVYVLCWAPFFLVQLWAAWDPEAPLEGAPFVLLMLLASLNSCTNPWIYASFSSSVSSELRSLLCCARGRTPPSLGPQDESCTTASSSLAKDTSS

With `COc1cc(C2=CCCCC2)c(Cl)cc1C(=O)N1Cc2ccc(C(=O)N(C)C[C@H](O)[C@@H](O)[C@H](O)[C@H](O)CO)n2Cc2ccccc21` [Example 1, 1-[[[10-[5-Chloro-4-(1-cyclohex-1-en-1-yl)-2-methoxybenzoyl]-10,11-dihydro-5H-pyrrolo[2,1-c][1,4]benzodiazepin-3-yl]carbonyl]methylamino]-1-deoxy-D-glucitol], the pIC50 – broadly, −log10 of the IC50, conventionally taken in molar units – was 5.81. Regarding `COC[C@@H](OC)[C@@H](OC)[C@H](OC)[C@H](CN(C)C(=O)c1ccc2n1Cc1ccccc1N(C(=O)c1ccc(C3=CCCCC3)c(C)c1)C2)OC` [Example 8, 10-(4-Cyclohex-1-en-1-yl-3-methylbenzoyl)-N-methyl-N-[(2S,3R,4R,5R)-2,3,4,5,6-pentamethoxyhexyl]-10,11-dihydro-5H-pyrrolo[2,1-c][1,4]benzodiazepine-3-carboxamide], the negative logarithm of the IC50 (pIC50) was less than 5.52. With `Cc1cc(C(=O)N2Cc3ccc(C(=O)N[C@@H](Cc4ccc(O)cc4)C(=O)O)n3Cc3ccccc32)ccc1C1=CCCCC1` [Example 10], where the note is “100 nM, value without parentheses”, the “V2 % inhibition @ 100 nM” value is recorded as 15%.
